Experiment: solubility in water
Format: physicochemical

With CCN(CC)CCNC(=O)c1c(C)[nH]c(/C=C2\C(=O)Nc3ccc(F)cc32)c1C [sunitinib base form VIII, N-[2-(diethylamino)ethyl]-5-[(Z)-(5-fluoro-1,2-dihydro-2-oxo-3H-indol-3-ylidine)methyl]-2,4-dimethyl-1 H-pyrrole-3-carboxamide] the solubility was < 1000 µg/mL.

Reference: patent publication EP2253629A1, “Polymorphs of racemic sunitinib malate, compositions containing them and preparation thereof” (Teva Pharmaceutical Industries Ltd., priority 2007, dated 2009)
